Results reported in patent publication US6054478A, “Antifungal sordaridin derivatives” (Glaxo Wellcome S.A., priority 1994, dated 2000).
≈ marks a conversion by molar mass, not a printed value.

Columns and labels:
C. psuedotropicalis 371E = test: in vitro antifungal MIC, two-fold serial dilution; assay type: cell-based, Candida pseudotropicalis; settings: Kluyveromyces marxianus, 24 to 48 hours at 37° C
Procedure: (§1) The in vitro evaluation of the anti-fungal activity of compounds of the invention was performed on liquid or solid medium by the anti-fungal two-fold serial dilution technique of determining the minimum inhibitory concentration (MIC) of anti-fungal agent that inhibited development of growth after 24 to 48 hours of incubation at 37° C. In practice, a series of agar plates or broth microdilution panels containing two-fold dilutions of anti-fungal agent tested were inoculated with a standard culture of a clinically relevant pathogen, for example, candida albicans. The agar plates or broth microdulution panels were then examined for the presence or absence of growth of the fungus and the appropriate MIC values were noted. Compounds of formula (I) have been tested for anti fungal activity in a standard in vitro screen and the minimum inhibiting concentration (MIC; μg/ml) determined for each compound against a variety of clinically relevant pathogens.

C. albicans 1208E = test: in vitro antifungal MIC, two-fold serial dilution; assay type: cell-based; settings: Candida albicans, 24 to 48 hours at 37° C
Procedure: as §1

C. neoformans 2867E = test: in vitro antifungal MIC, two-fold serial dilution; assay type: cell-based; settings: Cryptococcus neoformans, 24 to 48 hours at 37° C
Procedure: as §1

C. tropicalis 2808E = test: in vitro antifungal MIC, two-fold serial dilution; assay type: cell-based; settings: Candida tropicalis, 24 to 48 hours at 37° C
Procedure: as §1

C. albicans 2402E = test: in vitro antifungal MIC, two-fold serial dilution; assay type: cell-based; settings: Candida albicans, 24 to 48 hours at 37° C
Procedure: as §1

C. albicans 2005E = test: in vitro antifungal MIC, two-fold serial dilution; assay type: cell-based; settings: Candida albicans, 24 to 48 hours at 37° C
Procedure: as §1

C. glabrata 2375E = test: in vitro antifungal MIC, two-fold serial dilution; assay type: cell-based; settings: Nakaseomyces glabratus, 24 to 48 hours at 37° C
Procedure: as §1

C. glabrata 2376E = test: in vitro antifungal MIC, two-fold serial dilution; assay type: cell-based; settings: Nakaseomyces glabratus, 24 to 48 hours at 37° C
Procedure: as §1

C. albicans 4711 = test: in vitro antifungal MIC, two-fold serial dilution; assay type: cell-based; settings: Candida albicans, 24 to 48 hours at 37° C
Procedure: as §1

C. albicans 4711E = test: in vivo protection of mice infected with C. albicans; design: species or system Candida albicans; male mice; settings: 50 mg/kg sc
Excerpt: The in vivo evaluation of compounds of formula (I) can be carried out at a series of dose levels by administration (e.g. subcutaneously, orally, intraperitoneally or intravenously) to mice or rats inoculated with a strain of Candida albicans. Untreated animals die within 3 to 9 days and the dose level at which the test compound provides 50% protection against the lethal effect of the infection is noted.
(§2) The compounds of the invention are essentially non-toxic at therapeutically useful levels.

[1] = adverse effects in treated mice; assay type: in vivo, male mice; settings: 50 mg/kg sc
Excerpt: as §2

fungal organisms = settings: cited from earlier work; for antifungal activity (reported): reported in the literature; for antifungal activity and spectrum of action: when tested against a battery of fungal organisms

| SMILES | MIC (C. psuedotropicalis 371E) [µg/mL] | MIC (C. albicans 1208E) [µg/mL] | MIC (C. neoformans 2867E) [µg/mL] | MIC (C. tropicalis 2808E) [µg/mL] | MIC (C. albicans 2402E) [µg/mL] | MIC (C. albicans 2005E) [µg/mL] | MIC (C. glabrata 2375E) [µg/mL] | MIC (C. glabrata 2376E) [µg/mL] | MIC (C. albicans 4711) [µg/mL] | protection of male mice infected with C. albicans 4711E (C. albicans 4711E) | adverse effects in the treated mice [1] | antifungal activity (reported) (fungal organisms) | antifungal activity and spectrum of action (fungal organisms) |
| --- | --- | --- | --- | --- | --- | --- | --- | --- | --- | --- | --- | --- | --- |
| CCCCCCOC1C(O)C(OCC23CC4C(C)CCC4C4(C=O)CC2C=C(C(C)C)C43C(=O)O)OC(C)C1OC [Example 3, [1R-(1α, 3aβ, 4β4aβ, 7β, 7aα, 8aβ)] 8a-[(6-Deoxy-3-O-hexyl-4-O-methyl-β-D-altropyranosyloxy)methyl]-4-formyl-4,4a,5,6,7,7a,8,8a-octahydro-7-methyl-3-(1-methylethyl)-1,4-methano-s-indacene-3a(1H)-carboxylic acid] | 0.25 (≈ 0.433 µM) | 4 (≈ 6.94 µM) | 31 (≈ 53.7 µM) | 1 (≈ 1.73 µM) | 2 (≈ 3.47 µM) | 0.25 (≈ 0.433 µM) | > 125 | > 125 | – | – | – | – | – |
| COC1CC(OCC23CC4C(C)CCC4C4(C=O)CC2C=C(C(C)C)C43C(=O)O)OC(C)C1OC [Example 5, [1R-(1α, 3aβ, 4β, 4aβ, 7β, 7aα, 8aβ)] 8a-[(2,6-Dideoxy-3,4-O-dimethyl-β-D-allopyranosyloxy)methyl]-4-formyl-4,4a,5,6,7,7a,8,8a-octahydro-7-methyl-3-(1-methylethyl)-1,4-methano-s-indacene-3a(1H)-carboxylic acid] | ≤ 0.001 | ≤ 0.001 | 31 (≈ 63.2 µM) | 0.004 (≈ 0.00815 µM) | ≤ 0.001 | ≤ 0.001 | 1 (≈ 2.04 µM) | 1 (≈ 2.04 µM) | ≤ 0.001 | – | – | – | – |
| COCOC1CC(OCC23CC4C(C)CCC4C4(C=O)CC2C=C(C(C)C)C43C(=O)O)OC(C)C1OC [Example 8, [1R-(1α, 3aβ, 4β, 4aβ, 7β, 7aα, 8aβ)] 8a-[(2,6-Dideoxy-4-O-methyl-3-O-methyloxymethyl-β-D-allopyranosyloxy)methyl]-4-formyl-4,4a,5,6,7,7a,8,8a-octahydro-7-methyl-3-(1-methylethyl)-1,4-methano-s-indacene-3a(1H)-carboxylic acid] | 0.12 (≈ 0.23 µM) | 0.25 (≈ 0.48 µM) | 31 (≈ 59.5 µM) | 2 (≈ 3.84 µM) | 0.25 (≈ 0.48 µM) | 0.03 (≈ 0.0576 µM) | 16 (≈ 30.7 µM) | 16 (≈ 30.7 µM) | 0.12 (≈ 0.23 µM) | – | – | – | – |
| CCCOC1C(C)OC(OCC23CC4C(C)CCC4C4(C=O)CC2C=C(C(C)C)C43C(=O)O)CC1OC [Example 9, [1R-(1α, 3aβ, 4β, 4aβ, 7β, 7aα, 8aβ)] 8a-[(2,6-Dideoxy-3-O-methyl-4-O-propyl-β-D-allopyranosyloxy)methyl]-4-formyl-4,4a,5,6,7,7a,8,8a-octahydro-7-methyl-3-(1-methylethyl)-1,4-methano-s-indacene-3a(1H)-carboxylic acid] | 2 (≈ 3.86 µM) | 8 (≈ 15.4 µM) | 125 (≈ 241 µM) | 16 (≈ 30.8 µM) | 8 (≈ 15.4 µM) | 2 (≈ 3.86 µM) | > 125 | > 125 | 4 (≈ 7.71 µM) | – | – | – | – |
| COC1C(C)OC(OCC23CC4C(C)CCC4C4(C=O)CC2C=C(C(C)C)C43C(=O)O)C(O)C1N=[N+]=[N-] [Example 10, [1R-(1α, 3aβ, 4β, 4aβ, 7β, 7aα, 8aβ)] 8a-[(3-Azido-3,6-dideoxy-4-O-methylβ-D-altropyranosyloxy)methyl]-4-formyl-4,4a,5,6,7,7a,8,8a-octahydro-7-methyl-3-(1-methylethyl)-1,4-methano-s-indacene-3a(1H)-carboxylic acid] | – | 1 (≈ 1.93 µM) | 4 (≈ 7.73 µM) | – | 1 (≈ 1.93 µM) | 0.12 (≈ 0.232 µM) | 62 (≈ 120 µM) | 62 (≈ 120 µM) | 0.5 (≈ 0.966 µM) | active in protecting male mice | no adverse effects were observed | – | – |
| COC1C(C)OC(OCC23CC4C(C)CCC4C4(C=O)CC2C=C(C(C)C)C43C(=O)O)C(O)C1SC [Example 11, [1R-(1α, 3aβ, 4β, 4aβ, 7β, 7aα, 8aβ)] 8a-[(3,6-Dideoxy-4-O-methyl-3-methylthio-β-D-altropyranosyloxy)methyl]-4-formyl-4,4a,5,6,7,7a,8,8a-octahydro-7-methyl-3-(1-methylethyl)-1,4-methano-s-indacene-3a(1H)-carboxylic acid] | 1 (≈ 1.91 µM) | 1 (≈ 1.91 µM) | 0.05 (≈ 0.0957 µM) | 2 (≈ 3.83 µM) | 1 (≈ 1.91 µM) | 0.25 (≈ 0.478 µM) | 31 (≈ 59.3 µM) | 31 (≈ 59.3 µM) | 1 (≈ 1.91 µM) | – | – | – | – |
| COC1C(N=[N+]=[N-])CC(OCC23CC4C(C)CCC4C4(C=O)CC2C=C(C(C)C)C43C(=O)O)OC1C [Example 15, [1R-(1α, 3aβ, 4β, 4aβ, 7β, 7aα, 8aβ)] 8a-[(3-Azido-4-O-methyl-2,3,6-trideoxy-β-D-allopyranosyloxy)methyl]-4-formyl-4,4a,5,6,7,7a,8,8a-octahydro-7-methyl-3-(1-methylethyl)-1,4-methano-s-indacene-3a(1)-carboxylic acid] | ≤ 0.001 | ≤ 0.001 | 31 (≈ 61.8 µM) | 0.004 (≈ 0.00797 µM) | ≤ 0.001 | ≤ 0.001 | 1 (≈ 1.99 µM) | 1 (≈ 1.99 µM) | ≤ 0.001 | – | – | – | – |
| CCCCCCCC(=O)OC1C(O)C(OCC23CC4C(C)CCC4C4(C=O)CC2C=C(C(C)C)C43C(=O)O)OC(C)C1OC [Example 24, [1R-(1α, 3aβ, 4β, 4aβ, 7β, 7aα, 8aβ,)] 8a-[(6-Deoxy-4-O-methyl-3'-O-octanoyl-β-D-altropyranosyloxy)methyl]-4-formyl-4,4a,5,6,7,7a,8,8a-octahydro-7-methyl-3-(1-methylethyl)-1,4-methano-s-indacene-3a(1H)-carboxylic acid] | 0.004 (≈ 0.00646 µM) | 0.6 (≈ 0.97 µM) | 0.25 (≈ 0.404 µM) | 0.06 (≈ 0.097 µM) | 0.03 (≈ 0.0485 µM) | ≤ 0.001 | 500 (≈ 808 µM) | 500 (≈ 808 µM) | – | – | – | – | – |
| COC1CCC(OCC23CC4C(C)CCC4C4(C=O)CC2C=C(C(C)C)C43C(=O)O)OC1C [Example 39, [1R-(1α, 3aβ, 4aβ, 7β, 7aα, 8aβ)] 8a-[(2,3,6-Trideoxy-4-O-methyl-β-D-allopyranosyloxy)methyl]-4-formyl-4,4a,5,6,7,7a,8,8a-octahydro-7-methyl-3-(1-methylethyl)-1,4-methano-s-indacene-3a(1H)-carboxylic acid] | 0.008 (≈ 0.0174 µM) | 0.06 (≈ 0.13 µM) | 62 (≈ 135 µM) | 0.25 (≈ 0.543 µM) | 0.06 (≈ 0.13 µM) | 0.004 (≈ 0.00868 µM) | 8 (≈ 17.4 µM) | 8 (≈ 17.4 µM) | – | – | – | – | – |
| CC(=O)OC1C(C)OC(OCC23CC4C(C)CCC4C4(C=O)CC2C=C(C(C)C)C43C(=O)O)CC1SC(C)=O [Example 42, [1R-(1α, 3aβ, 4β, 4aβ, 7β, 7aα, 8aβ)] 8a-(((2,3,6-Trideoxy-4-O-acetyl-3-acetylthio-b-D-allopyranosyl)oxy)methyl)-4-formyl-4,4a,5,6,7,7a,8,8a-octahydro-7-methyl-3-(1-methylethyl)-1,4-methano-s-indacene-3a(1H)-carboxylic acid] | ≤ 0.001 | 0.06 (≈ 0.107 µM) | > 125 | 1 (≈ 1.78 µM) | 0.06 (≈ 0.107 µM) | ≤ 0.001 | 31 (≈ 55.1 µM) | 31 (≈ 55.1 µM) | 0.015 (≈ 0.0267 µM) | – | – | – | – |
| COC1C(C)OC(OCC23CC4C(C)CCC4C4(C=O)CC2C=C(C(C)C)C43C(=O)O)C(O)C1O (stereo not shown) [sordarin] | – | – | – | – | – | – | – | – | – | – | – | fungistatic activity | only moderately active and have limited spectra of action |
| CC=CC=CC(=O)OC1C(O)C(OCC23CC4C(C)CCC4C4(C=O)CC2C=C(C(C)C)C43C(=O)O)OC(C)C1OC (stereo not shown) [zofimarin] | – | – | – | – | – | – | – | – | – | – | – | antifungal activity | only moderately active and have limited spectra of action |
